Laboratory results: US12661410B2, “Compounds for targeted degradation of RET” (C4 Therapeutics, Inc., priority 2020, dated 2026)
Where a chain is given by its changes, count along the chain named. Read-outs that look alike come from different tables or passages of the source.

Assays:
RET(KD: 658-1114 G810R) = target: T1, RET(KD: 658-1114 G810R) (Homo sapiens, UniProt P07949, G810R); experiment: HiBiT-Degradation, RET G810R degradation assay (Nano-Glo HiBiT Lytic), 293T.165 cells; format: cell-based; conditions: for Emax / DC50: 6.0 hours
T1 construct: 658-1114; expressed in transfected cells; host or cells: 293T.165 (293T cells, generated in-house)
T1 sequence (P07949 658-1114 G810R): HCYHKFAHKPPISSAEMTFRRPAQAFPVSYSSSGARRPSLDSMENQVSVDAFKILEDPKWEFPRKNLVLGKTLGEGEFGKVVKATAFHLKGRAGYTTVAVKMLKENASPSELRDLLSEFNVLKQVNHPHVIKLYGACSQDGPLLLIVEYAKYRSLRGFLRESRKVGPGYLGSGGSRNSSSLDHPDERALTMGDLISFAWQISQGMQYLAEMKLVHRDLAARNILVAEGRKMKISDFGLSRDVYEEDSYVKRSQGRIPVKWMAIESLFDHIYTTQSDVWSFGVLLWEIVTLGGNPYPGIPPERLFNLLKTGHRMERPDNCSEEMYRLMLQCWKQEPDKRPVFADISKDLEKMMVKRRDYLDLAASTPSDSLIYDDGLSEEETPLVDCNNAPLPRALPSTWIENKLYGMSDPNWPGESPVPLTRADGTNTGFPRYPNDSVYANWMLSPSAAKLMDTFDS
Description: (§1) Dulbecco's modified Eagle medium (DMEM) no-phenol red media and fetal bovine serum (FBS) were purchased from Gibco (Grand Island, NY, USA). Cell lines ectopically expressing wild-type or G810R RET kinase domain fused with a HiBiT tag were generated in-house (293T. 144 and 293T. 165, respectively). Cell culture flasks and 384-well microplates were acquired from VWR (Radnor, PA, USA). The Nano-Glo® HiBiT Lytic Assay System was purchased from Promega (Madison, WI, USA).
(§2) RET wild-type (WT) and G810R degradation were assessed using the Nano-Glo® HiBiT Lytic assay (Promega, Medison, WI, USA). To determine the effect of degraders on protein levels, cells were plated in 384-well plates and treated with compounds of interest in duplicates for 6 hours using an 11-point half-log dilution series, with the highest dose set at 10 μM. Cell lysis and addition of the Nano-Glo® HiBiT Lytic Assay reagents was then performed. Luminescence signal was measured using an EnVision™ Multimode plate reader (Perkin Elmer, Santa Clara, CA, USA). The half-maximal degradation concentration (DC50) and % remaining protein (Emax) was then derived from the dose-response curves.

RET (658-1114) = target: T2, RET (658-1114) (Homo sapiens, UniProt P07949); experiment: HiBiT-Degradation, RET wild-type degradation assay (Nano-Glo HiBiT Lytic), 293T.144 cells; format: cell-based; conditions: for DC50 / Emax: 6.0 hours
T2 construct: 658-1114; expressed in transfected cells; host or cells: 293T.144 (293T cells, generated in-house)
T2 sequence (P07949 658-1114): T1 sequence (P07949 658-1114 G810R) with R153G
Description: as §1, §2

[1] = % remaining protein, read-out: 293T.165 RET(KD: 658-1114 G810R) 6.0 hours (Emax)
[2] = half-maximal degradation concentration, read-out: 293T.165 RET(KD: 658-1114 G810R) 6.0 hours (DC50)
[3] = RET G810R, read-out: HiBiT-Degradation 293T.165 RET(KD: 658-1114 G810R) 6.0 hours (DC50)
[4] = RET G810R, read-out: HiBiT-Degradation 293T.165 RET(KD: 658-1114 G810R) 6.0 hours (Emax)
[5] = RET wild-type, read-out: HiBiT-Degradation 293T.144 RET (658-1114) 6.0 hours (DC50)
[6] = RET wild-type, read-out: HiBiT-Degradation 293T.144 RET (658-1114) 6.0 hours (Emax)
[7] = HiBiT-Degradation, read-out: 293T.165 RET(KD: 658-1114 G810R) 6.0 hours (DC50)
[8] = HiBiT-Degradation, read-out: 293T.144 RET (658-1114) 6.0 hours (DC50)
[9] = HiBiT-Degradation, read-out: 293T.144 RET (658-1114) 6.0 hours (Emax)
[10] = % remaining protein, read-out: 293T.144 RET (658-1114) 6.0 hours (Emax)
[11] = half-maximal degradation concentration, read-out: 293T.144 RET (658-1114) 6.0 hours (DC50)

Row | Compound | Emax (RET(KD: 658-1114 G810R); [1]) [%] | DC50 (RET(KD: 658-1114 G810R); [2]) [nM] | HiBiT-Degradation 293T.165 RET(KD: 658-1114 G810R) 6.0 hours (IP) [nM] (RET(KD: 658-1114 G810R); RET G810R) | DC50 (RET(KD: 658-1114 G810R); [3]) [nM] | Emax (RET(KD: 658-1114 G810R); [4]) [%] | HiBiT-Degradation 293T.144 RET (658-1114) 6.0 hours (IP) [nM] (RET (658-1114); RET wild-type) | DC50 (RET (658-1114); [5]) [nM] | Emax (RET (658-1114); [6]) [%] | 293T.165 RET(KD: 658-1114 G810R) 6.0 hours (Emax) (RET(KD: 658-1114 G810R); HiBiT-Degradation) | 293T.165 RET(KD: 658-1114 G810R) 6.0 hours (IP) [nM] (RET(KD: 658-1114 G810R); HiBiT-Degradation) | DC50 (RET(KD: 658-1114 G810R); [7]) [nM] | 293T.144 RET (658-1114) 6.0 hours (IP) [nM] (RET (658-1114); HiBiT-Degradation) | DC50 (RET (658-1114); [8]) [nM] | Emax (RET (658-1114); [9]) [%] | 293T.165 RET(KD: 658-1114 G810R) 6.0 hours (IP) [nM] (RET(KD: 658-1114 G810R)) | 293T.144 RET (658-1114) 6.0 hours (IP) [nM] (RET (658-1114)) | Emax (RET (658-1114); [10]) [%] | DC50 (RET (658-1114); [11]) [nM]
1 | N#Cc1cnn2cc(-c3ccc(N4CCN(C(=O)CN5CCC(c6ccc(NC7CCC(=O)NC7=O)cc6F)CC5)CC4)nc3)cc(-c3ccc(N4CCN(Cc5ccccn5)CC4)nc3)c12 (stereo not shown) [Compound 67, 6-[6-[4-[2-[4-[4-[(2,6-dioxo-3-piperidyl)amino]-2-fluoro-phenyl]-1-piperidyl]acetyl]piperazin-1-yl]-3-pyridyl]-4-[6-[4-(2-pyridylmethyl)piperazin-1-yl]-3-pyridyl]pyrazolo[1,5-a]pyridine-3-carbonitrile] | < 50 | < 100 | ++++ (< 50 nM = ++++) | < 100 | < 50 | ++++ (< 50 nM = ++++) | < 50 | < 30 |  |  |  |  |  |  |  |  |  | 
2 | N#Cc1cnn2cc(-c3ccc(N4CCN(C(=O)CN5CCC(c6ccc(NC7CCC(=O)NC7=O)cc6)CC5)CC4)cc3)cc(-c3ccc(N4CCC(Nc5ccccc5)CC4)nc3)c12 (stereo not shown) [Compound 20, 6-(4-(4-(2-(4-(4-((2,6-Dioxopiperidin-3-yl)amino)phenyl)piperidin-1-yl)acetyl)piperazin-1-yl)phenyl)-4-(6-(4-(phenylamino)piperidin-1-yl)pyridin-3-yl)pyrazolo[1,5-a]pyridine-3-carbonitrile] | < 30 | < 100 |  |  |  |  |  |  | ++++ (< 30% = ++++) | +++ (<100 nM = +++) | < 100 | ++++ (< 50 nM = ++++) | < 50 | < 30 |  |  |  | 
3 | N#Cc1cnn2cc(-c3ccc(N4CCN(C(=O)CN5CCC(c6ccc(NC7CCC(=O)NC7=O)cc6)CC5)CC4)cc3)cc(-c3ccc(N4CCN(C(=O)Cc5ccc(F)cn5)CC4)nc3)c12 (stereo not shown) [Compound 74, 6-[4-[4-[2-[4-[4-[(2,6-dioxo-3-piperidyl)amino]phenyl]-1-piperidyl]acetyl]piperazin-1-yl]phenyl]-4-[6-[4-[2-(5-fluoro-2-pyridyl)acetyl]piperazin-1-yl]-3-pyridyl]pyrazolo[1,5-a]pyridine-3-carbonitrile] | < 30 | < 50 | ++++ (< 50 nM = ++++) | < 50 | < 30 | ++++ (< 50 nM = ++++) | < 50 | < 30 |  |  |  |  |  |  |  |  |  | 
4 | CCC1(C(=O)Nc2ccc(F)cc2)CCN(c2ccc(-c3nc(-c4cnn(C5CCN(C(=O)CC6(O)CCN(c7ccc(NC8CCC(=O)NC8=O)cc7F)CC6)CC5)c4)cn4ncc(C#N)c34)cn2)CC1 (stereo not shown) [Compound 101, 1-[5-[3-cyano-6-[1-[1-[2-[1-[4-[(2,6-dioxo-3-piperidyl)amino]-2-fluoro-phenyl]-4-hydroxy-4-piperidyl]acetyl]-4-piperidyl]pyrazol-4-yl]pyrazolo[1,5-a]pyrazin-4-yl]-2-pyridyl]-4-ethyl-N-(4-fluorophenyl)piperidine-4-carboxamide] | < 30 | < 50 |  |  |  |  |  |  |  |  |  |  |  |  | ++++ (<50 nM = ++++) | ++++ (<50 nM = ++++) | < 30 | < 50
5 | N#Cc1cnn2cc(-c3ccc(N4CCN(C(=O)CN5CCC(c6ccc(NC7CCC(=O)NC7=O)cc6)CC5)CC4)cc3)cc(-c3ccc(N4CC5CC(C4)N5Cc4ccccc4)nc3)c12 (stereo not shown) [Compound 22, 4-(6-(6-Benzyl-3,6-diazabicyclo[3.1.1]heptan-3-yl)pyridin-3-yl)-6-(4-(4-(2-(4-(4-((2,6-dioxopiperidin-3-yl)amino)phenyl)piperidin-1-yl)acetyl)piperazin-1-yl)phenyl)pyrazolo[1,5-a]pyridine-3-carbonitrile] | < 30 | < 100 |  |  |  |  |  |  | ++++ (< 30% = ++++) | ++++ (< 50 nM = ++++) | < 100 | ++++ (< 50 nM = ++++) | < 50 | < 30 |  |  |  | 
6 | CC(C)Oc1ccc(CN2[C@@H]3COC[C@H]2CN(c2ccc(-c4nc(-c5cnn([C@H]6CC[C@H](N7CCN(c8c(F)cc(NC9CCC(=O)NC9=O)cc8F)CC7)CC6)c5)cn5ncc(C#N)c45)cn2)C3)cn1 (mixture of isomers) [Compound 213, 6-[1-[4-[4-[4-[(2,6-dioxo-3-piperidyl)amino]-2,6-difluoro-phenyl]piperazin-1-yl]cyclohexyl]pyrazol-4-yl]-4-[6-[rac-(1R,5S)-9-[(6-isopropoxy-3-pyridyl)methyl]-3-oxa-7,9-diazabicyclo[3.3.1]nonan-7-yl]-3-pyridyl]pyrazolo[1,5-a]pyrazine-3-carbonitrile] | < 30 | < 100 |  |  |  |  |  |  |  |  |  |  |  |  | +++ (<100 nM = +++) | ++++ (<50 nM = ++++) | < 30 | < 50
7 | CCC1(C(=O)NC(C)C)CCN(c2ncc(-c3nc(-c4cnn(C5CCN(C(=O)CC6(O)CCN(c7ccc(NC8CCC(=O)NC8=O)cc7F)CC6)CC5)c4)cn4ncc(C#N)c34)cc2F)CC1 (stereo not shown) [Compound 119, 1-(5-(3-cyano-6-(1-(1-(2-(1-(4-((2,6-dioxopiperidin-3-yl)amino)-2-fluorophenyl)-4-hydroxypiperidin-4-yl)acetyl)piperidin-4-yl)-1H-pyrazol-4-yl)pyrazolo[1,5-a]pyrazin-4-yl)-3-fluoropyridin-2-yl)-4-ethyl-N-isopropylpiperidine-4-carboxamide] | < 50 | < 100 |  |  |  |  |  |  |  |  |  |  |  |  | ++++ (<50 nM = ++++) | ++++ (<50 nM = ++++) | < 30 | < 50
8 | N#Cc1cnn2cc(-c3cnn(C4CC5(C4)CN(C(=O)CN4CCC(c6ccc(NC7CCC(=O)NC7=O)cc6F)CC4)C5)c3)cc(-c3ccc(N4CCN(Cc5ccccn5)CC4)nc3)c12 (stereo not shown) [Compound 76, 6-[1-[2-[2-[4-[4-[(2,6-dioxo-3-piperidyl)amino]-2-fluoro-phenyl]-1-piperidyl]acetyl]-2-azaspiro[3.3]heptan-6-yl]pyrazol-4-yl]-4-[6-[4-(2-pyridylmethyl)piperazin-1-yl]-3-pyridyl]pyrazolo[1,5-a]pyridine-3-carbonitrile] | < 30 | < 100 | +++ (<100 nM = +++) | < 100 | < 30 | ++++ (< 50 nM = ++++) | < 50 | < 30 |  |  |  |  |  |  |  |  |  | 
